From article PMC5309245, “Discovery and Characterization of Diazenylaryl Sulfonic Acids as Inhibitors of Viral and Bacterial Neuraminidases” (Frontiers in Microbiology, 2017) come the findings set out here.

Series [1] addresses IAV WSN/33 NA-wt (whole virus) (Influenza A virus, UniProt P03470). The series can be described thus: biochemical. Set-up: species or system influenza A virus A/WSN/1933 (H1N1). Conditions: for IC50: NA inhibition using FL assay IC50, IAV WSN/33.
The target in series [2] is IAV HK/68 NA (whole virus) (Influenza A virus, UniProt Q91MA2). The series can be described thus: biochemical. Set-up: species or system influenza A virus A/Hong Kong/68 (H3N2). Particulars: for IC50: NA inhibition using FL assay IC50, IAV HK/68.
The target of series [3] is T1, S. pneumoniae DSM20566 NA (NanA) (Streptococcus pneumoniae, UniProt P62575).
T1 construct: host or cells: either rNanA from E. coli BL21(DE3) or total precipitated protein of S. pneumoniae DSM20566
The experiment in a line: FL NA inhibition assay, S. pneumoniae DSM20566. The format is biochemical. Conditions: MUNANA substrate; read-out: NA inhibition using FL assay IC50, S. p. DSM20566.

In series [4] the test system is IAV 5258/09 NA. The experiment in a line: Hemagglutination (HA)-based NA inhibition assay, IAV 5258/09. The series is classed as cell-based, influenza A virus A/Jena/5258/2009 (H1N1). Particulars: human erythrocytes.
Series [5] deals with T2, S. pneumoniae DSM20566 NA (Streptococcus pneumoniae, UniProt P62575).
T2 construct: host or cells: either rNanA from E. coli BL21(DE3) or total precipitated protein of S. pneumoniae DSM20566
The series can be described thus: HA-based NA inhibition assay, S. pneumoniae DSM20566. The series is classed as cell-based. Particulars: human erythrocytes.

In series [6] the test system is influenza A virus 8178/09. The series can be described thus: microbe, parasite or virus in culture. The series is classed as cell-based, influenza A virus A/Jena/8178/2009 (H1N1). Particulars: Influenza A virus, MDCK, 48 h, read-out: 50% inhibitory concentration, influenza A virus 8178/09.
The subject of series [7] is influenza A virus WSN/33. The series can be described thus: microbe, parasite or virus in culture. The format is cell-based, influenza A virus A/WSN/1933 (H1N1). Particulars: Influenza A virus, WSN, MDCK, 48 h, read-out: 50% inhibitory concentration, influenza A virus WSN/33.
Series [8] concerns influenza A virus HK/68. The experiment in a line: microbe, parasite or virus in culture. The format is cell-based, influenza A virus A/Hong Kong/68 (H3N2). Conditions: Influenza A virus, MDCK, 48 h, read-out: 50% inhibitory concentration, influenza A virus HK/68.
The test system of series [9] is 8178/09-, WSN/33-, or HK/68-induced cytopathic effect. The experiment in a line: CPE inhibition assay (viruses not separated). The series is classed as cell-based. Particulars: Influenza A virus, MDCK, read-out: IC50 of inhibition of the 8178/09-, WSN/33-, or HK/68-induced cytopathic effect. On the technique in general: Protection from cytopathic effect is a common read-out in antiviral testing.

Series [10] deals with S. pneumoniae DSM20566. The experiment in a line: Microtiter broth microdilution assay, planktonic growth. The series is classed as cell-based, Streptococcus pneumoniae DSM20566. Particulars: Streptococcus pneumoniae, DSM20566; 18 h, maximum 50 μM; read-out: 50% inhibitory concentration, S. pneumoniae DSM20566 planktonic growth. (In general: Dilution methods test growth across graded concentrations, often in twofold steps.)

In series [11] the test system is S. pneumoniae DSM20566 biofilm. The series can be described thus: Biofilm inhibition assay. The series is classed as cell-based, Streptococcus pneumoniae DSM20566. Particulars: for inhibition at 50 µM: Streptococcus pneumoniae, DSM20566, read-out: Inhibition of biofilm formation at the maximum tested concentration.
Series [12] relates to human erythrocytes. The format is cell-based. Conditions: human erythrocytes, 2 h at 4°C. As for the experimental part:
(§1) Viral (whole virus) and bacterial NA activity as well as their inhibition were measured by using a fluorescence (FL) assay with the substrate 2′-(4-methylumbelliferyl)-α-D-N-acetylneuraminic acid sodium salt hydrate (MUNANA, 100 μM; Sigma-Aldrich GmbH, Taufkirchen, Germany), and/or a hemagglutination (HA)-based NA inhibition assay (HA assay) with human erythrocytes (Institute of Transfusion Medicine, University Hospital Jena, Jena, Germany), both assays as published recently (Richter et al., [2015]). Recombinant NanA (rNanA) and total precipitated bacterial protein of S. pneumoniae DSM20566 were used in FL and HA assays. Interference of the compounds with the FL signal (self-fluorescence and quenching) was excluded as described previously (Richter et al., [2015]). […] Each compound was tested at least three times in both NA inhibition assays.
Supplementary Table 1. Assay interference phenomena of test compounds in the HA-based […]
sample concentrations [µM] in viral HA-assay bacterial HA-assay […]
hem- prevention of erythrocyte hem- erythrocyte agglutinationa virus-induced lysisc agglutinationd lysise […]
cTest compounds lysed the human erythrocytes (2 h at 4°C). […]

Series [13] relates to human erythrocytes. The series is classed as cell-based. Conditions: human erythrocytes, 4 h at 37°C and 12 h at 4°C. On the procedure: as §1
Supplementary Table 1. […]
eTest compounds lysed the human erythrocytes (4 h at 37°C and 12 h at 4°C).

A short description of series [14]: in vitro. Particulars: dog.

IAV WSN/33 NA-wt (whole virus), sequence (P03470 whole entry, looked up): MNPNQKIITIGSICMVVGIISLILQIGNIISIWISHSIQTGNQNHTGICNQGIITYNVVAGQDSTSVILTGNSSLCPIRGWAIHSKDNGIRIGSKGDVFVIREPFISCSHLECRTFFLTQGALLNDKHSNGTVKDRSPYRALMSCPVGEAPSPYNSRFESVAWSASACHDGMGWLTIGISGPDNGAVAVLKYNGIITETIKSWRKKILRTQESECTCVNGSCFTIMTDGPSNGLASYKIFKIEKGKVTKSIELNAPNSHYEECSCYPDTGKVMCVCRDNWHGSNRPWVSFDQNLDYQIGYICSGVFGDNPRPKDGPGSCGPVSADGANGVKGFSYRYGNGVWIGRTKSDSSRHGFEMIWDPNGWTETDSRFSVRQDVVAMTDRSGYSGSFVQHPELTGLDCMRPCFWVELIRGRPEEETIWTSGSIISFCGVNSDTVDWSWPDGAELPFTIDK
IAV HK/68 NA (whole virus), sequence (Q91MA2 whole entry, looked up): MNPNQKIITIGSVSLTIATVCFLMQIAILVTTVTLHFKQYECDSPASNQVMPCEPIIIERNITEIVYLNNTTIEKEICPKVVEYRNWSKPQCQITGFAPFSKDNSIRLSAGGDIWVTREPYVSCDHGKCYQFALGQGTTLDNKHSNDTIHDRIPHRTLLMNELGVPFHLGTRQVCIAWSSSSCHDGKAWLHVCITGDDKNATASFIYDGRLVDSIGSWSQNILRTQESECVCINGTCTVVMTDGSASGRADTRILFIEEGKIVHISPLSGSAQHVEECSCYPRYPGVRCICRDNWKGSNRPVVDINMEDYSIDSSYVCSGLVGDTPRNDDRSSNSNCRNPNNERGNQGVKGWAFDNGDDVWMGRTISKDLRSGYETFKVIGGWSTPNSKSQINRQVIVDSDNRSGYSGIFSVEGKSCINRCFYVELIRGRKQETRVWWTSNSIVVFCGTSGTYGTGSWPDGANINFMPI
T1 sequence (P62575 54-1035): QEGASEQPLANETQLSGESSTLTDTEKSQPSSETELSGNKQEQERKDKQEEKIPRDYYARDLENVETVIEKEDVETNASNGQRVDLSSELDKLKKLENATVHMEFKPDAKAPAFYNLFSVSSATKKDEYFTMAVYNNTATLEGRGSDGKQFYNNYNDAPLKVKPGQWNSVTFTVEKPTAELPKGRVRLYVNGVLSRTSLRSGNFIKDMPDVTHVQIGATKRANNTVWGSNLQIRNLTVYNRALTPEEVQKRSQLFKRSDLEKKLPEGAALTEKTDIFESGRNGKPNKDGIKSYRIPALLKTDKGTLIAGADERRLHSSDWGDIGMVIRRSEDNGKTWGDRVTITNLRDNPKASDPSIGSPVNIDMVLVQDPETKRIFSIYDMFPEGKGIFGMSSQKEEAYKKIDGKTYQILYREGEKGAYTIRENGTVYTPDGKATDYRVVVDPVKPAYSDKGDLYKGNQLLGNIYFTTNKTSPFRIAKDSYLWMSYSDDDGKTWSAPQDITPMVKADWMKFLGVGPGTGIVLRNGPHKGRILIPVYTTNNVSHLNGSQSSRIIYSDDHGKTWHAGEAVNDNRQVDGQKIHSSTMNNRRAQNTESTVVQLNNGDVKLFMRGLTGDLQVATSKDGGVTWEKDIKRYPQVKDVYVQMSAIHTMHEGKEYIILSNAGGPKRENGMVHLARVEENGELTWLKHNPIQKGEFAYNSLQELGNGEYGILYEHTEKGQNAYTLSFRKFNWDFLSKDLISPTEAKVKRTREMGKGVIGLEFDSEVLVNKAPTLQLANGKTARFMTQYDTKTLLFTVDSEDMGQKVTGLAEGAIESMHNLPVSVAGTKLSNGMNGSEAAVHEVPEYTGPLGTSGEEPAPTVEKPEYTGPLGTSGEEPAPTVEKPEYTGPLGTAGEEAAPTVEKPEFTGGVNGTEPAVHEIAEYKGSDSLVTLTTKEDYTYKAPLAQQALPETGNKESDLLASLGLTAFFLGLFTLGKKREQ
T2 sequence (P62575 54-1035): as above

With `O=S(=O)(O)c1ccc(/N=N/c2ccc(/N=N/c3ccc(O)c4ccccc34)cc2)cc1` [Compound 6], the IC50 in [1] turned out to be 36.4 ± 4.2 µM; in [2], 83.4 ± 3.67 µM; in series [3] it was 1.18 ± 0.55 µM; in series [6], 10.6 ± 0.71 µM; in [7], 24.2 ± 9.78 µM; in [8], 20.8 ± 1.99 µM. Besides, the figures for the IC50 in series [9] and in series [10] were < 15 µM and 6.14 ± 0.61 µM, respectively. In [4], the “NA inhibition using HA assay MIC, IAV 5258/09” value (“NA inhibition … IAV 5258/09” below) worked out at 24.40 ± 12.47 µM. For the same compound, the “NA inhibition using HA assay MIC, S. p. DSM20566” value (“NA inhibition … S. p. DSM20566” below) in series [5] is given as “Not active^c”. Besides, in [11], the inhibition at 50 µM stood at 46%. For the same compound, the “sample concentrations provoking erythrocyte lysis, viral HA-assay” value in series [12] is recorded as “no”. The “sample concentrations provoking erythrocyte lysis, bacterial HA-assay” value in [13] was “no”. Also, the CC50 in [14] is > 100 µM.

Regarding `Cc1ccccc1/N=N/c1ccc(/N=N/c2c(O)ccc3cc(S(=O)(=O)O)ccc23)c(C)c1` [Compound 4], the “NA inhibition using FL assay IC50, IAV WSN/33” value in series [1] was “Not active”. Moreover, the IC50 in [2] is 71.1 ± 22 µM; in [3], 4.79 ± 1.31 µM; in [6], 12.1 ± 4.83 µM; in [7], 14 ± 2.68 µM; in series [8] it was 13.2 ± 3.11 µM; in series [9] it was < 15 µM. In addition, in [10], the IC50 was 12 ± 6.81 µM. Further, in series [4], the “NA inhibition … IAV 5258/09” value is “Not active^c”. For the same compound, the “NA inhibition … S. p. DSM20566” value in series [5] is reported as “Not active^c”. For the same compound, in series [11], the inhibition at 50 µM was 46%. The “sample concentrations provoking erythrocyte lysis, viral HA-assay” value in series [12] is recorded as “no”. In addition, in series [13], the “sample concentrations provoking erythrocyte lysis, bacterial HA-assay” value amounted to 100 µM. The CC50 in series [14] is > 100 µM.

With `O=S(=O)(O)c1ccc2c(/N=N/c3ccc(/N=N/c4ccccc4)cc3)c(O)ccc2c1` [Compound 3], the “NA inhibition using FL assay IC50, IAV WSN/33” value in series [1] is “Not active”. Moreover, the “NA inhibition using FL assay IC50, IAV HK/68” value in [2] was “Not active”. Also, the IC50 in series [3] is 11.6 ± 0.15 µM; in [6], 14.4 ± 8.16 µM; in [7], 52.2 ± 17.9 µM; in series [8], 13.6 ± 3.18 µM; in [9], < 15 µM; in [10], 20.1 ± 2.24 µM. Moreover, the “NA inhibition … IAV 5258/09” value in [4] is “Not active^c”. Moreover, in [5], the “NA inhibition … S. p. DSM20566” value is reported as “Not active^c”. Further, the “50% inhibitory concentration, S. pneumoniae DSM20566 biofilm formation” value in series [11] (24 h, maximum 50 μM) is recorded as “Not active”. Besides, the “sample concentrations provoking erythrocyte lysis, viral HA-assay” value in series [12] is listed as “no”. In [13], the “sample concentrations provoking erythrocyte lysis, bacterial HA-assay” value was “no”. Besides, in series [14], the CC50 was > 100 µM.

Consider `COc1cc(/N=N/c2ccc(S(=O)(=O)O)cc2)ccc1/N=N/c1c(O)ccc2ccccc12` [Compound 7], for which the IC50 in series [1] came out at 4.25 ± 1.25 µM; in series [2], 87.2 ± 8.03 µM; in series [3] it was 5.6 ± 3.01 µM; in series [6], 3.28 ± 2.19 µM; in series [7], 78.6 ± 16.2 µM; in [8], 4.22 ± 0.98 µM. The IC50 in [9] was < 15 µM; in series [10], 3.32 ± 0.72 µM. Moreover, in [4], the “NA inhibition … IAV 5258/09” value was “Not active^c”. In addition, in series [5], the “NA inhibition … S. p. DSM20566” value is given as “Not active^c”. In [11], the inhibition at 50 µM was found to be 46%. The “sample concentrations provoking erythrocyte lysis, viral HA-assay” value in series [12] is recorded as “no”. The “sample concentrations provoking erythrocyte lysis, bacterial HA-assay” value in series [13] is on record as “no”. Moreover, in series [14], the CC50 is > 100 µM.
